Results on six molecules are retold here after US9296710B2, “Bicyclo (3.1.0) hexane-2, 6-dicarboxylic acid derivatives as mGlu2 receptor agonist” (Eli Lilly and Company, priority 2011, dated 2016).

Structures can show the parent of a compound that is named as a salt.

The subject of data set [1] is immobility in forced swim test in mice. Kind of data set: Forced Swim Test in Rodents (mice). It counts as in vivo, mouse. The following applies: for ED60 (60% of the amount of immobility relative to vehicle controls): intraperitoneal dosing 60 min prior to testing. As for the experimental part: In this assay, mechanisms with purported antidepressant-like activity decrease immobility in a brief inescapable forced swim episode.
The forced-swim test was conducted in mice (male, NIH-Swiss mice, 20-25 g, Harlan Sprague-Dawley, Indianapolis, Ind.). Mice are placed in clear plastic cylinders (diameter 10 cm; height: 25 cm) filled to 6 cm with 22-25° C. water for six min. The duration of immobility is recorded during the last 4 min of a six-minute trial. The compounds of Examples 2, 3, 8, 11, and 12 are tested following intraperitoneal dosing, 60 min prior to testing. Imipramine is used as a positive control for these studies. Compounds are formulated in a water vehicle, with minimal NaOH added. The amount of time spent immobile (defined as movements only necessary to keep the subject's head above water) is the dependent measure and recorded by an observer blinded to the drug treatment of the subjects. Data are analyzed by post-hoc Dunnett's test with alpha level set at 0.05.

Data set [2] has as its system PCP-induced hyperlocomotor activity in mice. Kind of data set: Reversal of Phencyclidine (PCP)-Induced Hyperlocomotor Activity in Mice. It counts as in vivo, mouse. The source says:
This assay for Reversal of Phencyclidine (PCP)-Induced Hyperlocomotor Activity in Mice is run substantially as the Reversal of Phencyclidine (PCP)-Induced Hyperlocomotor Activity in Rats assay provided above, using mice instead of rats and with the changes noted below.
Motor activity is monitored by placing individual male, ICR (CD-1), (Harlan, Indianapolis, Ind.) mice in transparent, plastic shoe-box cages of the dimensions 45×25×20 cm, with 0.5 cm depth of wood chips as bedding, and plastic lid on top of the cage. Motor monitors (Kinder Scientific) consist of a rectangular rack of 12 photobeams arranged in an 8×4 formation, (or a high density grouping of 22 in a 15×7 pattern) at a height of 2.5 cm. The shoe box cage is placed inside of these racks, with the racks on a 3 foot high tabletop in an isolated room. A compound of the present invention is dosed (intraperitoneal route, non-prodrug) usually within a range of 0.3-30 mg/kg; though higher doses may be used, 30 minutes prior to a 7.5 mg/kg challenge dose of phencyclidine (PCP). On the test day, mice are placed in the test cage and allowed to acclimate for 45 minutes prior to PCP challenge; mice are monitored for an additional 60 minutes following PCP administration.
Power analyses have determined that 7-8 mice per group are needed to have appropriate statistical power for detecting treatment differences (power=0.8).

Data set [3] can be described thus: In Vitro Intestinal Prodrug Hydrolysis Assay. It counts as in vitro ADME. The note with it: 1 h, 10 µM, pH 7.4. As to the method: Frozen human duodenum intestinal homogenates (1:2 tissue:buffer ratio using 100 mM Tris Phosphate buffer, pH 7.4) are obtained from Celsius In Vitro Technologies (Baltimore, Md.) that were both phenylmethylsulphonylfluoride (PMSF) and EDTA free.
Each lot of human duodenum is obtained from a single donor and the intestine is scraped and the sections are frozen separate. All original tissue collections are performed at 4° C. and immediately frozen at −70° C.
Hydrolysis of the positive control, Internal Prodrug Compound A to Internal Compound Drug A, run in every batch averaged 75.3% (n=20). Final values are then normalized relative to the formation of Internal Compound Drug A.

The next data set concerns the target T1, PepT1 (Homo sapiens, UniProt P46059).
T1 construct: expressed in transfected cells; host or cells: HeLa cells (ATCC), transient transfection with FUGENE6
T1 sequence (P46059 1-708): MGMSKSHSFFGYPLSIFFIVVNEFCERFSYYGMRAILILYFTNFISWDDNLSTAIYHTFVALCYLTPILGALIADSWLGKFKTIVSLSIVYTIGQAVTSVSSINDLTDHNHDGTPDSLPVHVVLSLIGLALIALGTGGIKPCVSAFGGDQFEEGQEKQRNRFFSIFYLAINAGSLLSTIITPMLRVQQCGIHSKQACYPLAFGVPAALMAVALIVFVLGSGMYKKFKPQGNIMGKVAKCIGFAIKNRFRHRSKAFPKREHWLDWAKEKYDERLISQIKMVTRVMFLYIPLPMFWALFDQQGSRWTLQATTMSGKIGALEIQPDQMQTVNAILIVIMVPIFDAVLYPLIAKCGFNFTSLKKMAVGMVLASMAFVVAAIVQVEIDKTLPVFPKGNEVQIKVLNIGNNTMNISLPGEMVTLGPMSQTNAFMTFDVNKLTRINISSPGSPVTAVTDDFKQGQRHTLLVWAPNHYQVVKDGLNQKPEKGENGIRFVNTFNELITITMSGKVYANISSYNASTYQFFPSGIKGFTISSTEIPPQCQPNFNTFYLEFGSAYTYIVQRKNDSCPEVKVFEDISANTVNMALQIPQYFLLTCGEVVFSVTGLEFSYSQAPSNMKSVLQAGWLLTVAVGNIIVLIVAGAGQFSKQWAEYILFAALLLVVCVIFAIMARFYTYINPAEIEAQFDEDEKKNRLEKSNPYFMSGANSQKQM
Kind of data set: In Vitro PepT1 GlySar Inhibition Screen. It counts as cell-based. The following applies: prodrug at 5 mM, pH 6.0, PepT1 transiently transfected HeLa cells, 5 μM [14C]Gly-Sar and 20 μM cold Gly-Sar; read-out: Mean GlySar Uptake Inhibition %. As to the method: PepT1 assays are established to examine the ability of the amino acid prodrug compounds to interact with the intestinal absorption transporter PepT1.
HeLa cells, derived from human cancer cells, (American Type Culture Collection) are grown in Hyclone Medium (Invitrogen, Cat# SH30243) containing 10% fetal bovine serum (FBS), 0.1 mM non essential amino acids (NEAA), and 100 units/mL penicillin with 100 μg/mL streptomycin at 37° C. in a 5% CO2 humidified atmosphere. The cell line is used for up to 40 passages and then discarded. Frozen cells in 1 mL vials are thawed in water bath for 1-2 minutes and added to 5 mL of cell medium at 37° C. Each of the T-flasks is provided with 8.5 mL of the fresh medium and 1.5 mL of the cell stock. Cells are passaged twice during a week. […] Each new flask receives a combination of 8.5 mL of fresh medium and 1.5 mL of cell stock, in order to obtain 1:6 cell dilution. Cells are incubated at 37° C., until ready for the uptake study.
Cells that are 70-80% confluent in the T-flasks are plated 1 day prior to the transfection procedure. The flask with the cell stock is treated with PBS-EDTA and trypsin to detach the cells, and transfection medium is used from this point. Transfection medium consists of Dulbecco's Modified Eagle Medium (DMEM)+NEAA. To each well, 0.5 mL of the cell mixture is added (1.3×10^5 is the desired cell concentration) and the cells are incubated at 37° C. overnight. Twenty four hours before the assay, cells are transfected with PEPT1. Transfection mixture is prepared by mixing 600 μL of serum free transfection medium, 18 μL of FUGENE6® (Roche Diagnostics), and 11 μg of the PepT1 DNA. The transfection reagent-DNA complex is incubated for 20 minutes and 24 μL of the reagent-DNA complex is added to each well.
Inhibition of PEPT1-mediated [glycyl-1-2-^14C]Glyclysarcosine (GlySar) uptake activity is measured in the cells cultured in the 24-well plates 24-hours post transfection as previously published (Zhang et al. 2004. J. Pharm. Exper Ther. 310:437-445). To measure the ability of a compound of the present invention to inhibit the uptake of [^14C]Gly-Sar, prodrug compounds are incubated with 80 to 90% confluent PepT1 transiently transfected HeLa cells at 5 mM in pH 6.0 uptake medium in the presence of 5 μM [^14C]Gly-Sar (Moravek Biochemicals) and 20 μM cold Gly-Sar. Uptake media consists of 140 mM NaCl, 5.4 mM KCl, 1.8 mM CaCl2, 0.8 mM MgSO4, 5 mM Glucose, 25 mM tris(hydroxymethyl)aminomethane buffer (TRIS). The solution is then brought to pH 6.0 using 2-(N-morpholino)ethanesulfonic acid. The incubation volume is 500 μL and is performed at room temperature for 3 minutes. To stop the uptake at the conclusion of the incubation time, the uptake media is aspirated off of the cell monolayer and 500 μL of ice cold PBS added to the well. The cells are washed 3 times with 500 μL of room temperature PBS without Ca^+2 and Mg^+2. The cells are then lysed with 300 μL of 1% TRITON® X100 H2O solution. A 200 μL aliquot is removed and radioactivity is determined by liquid scintillation counting to measure the [^14C]Gly-Sar present in each of the incubation wells. A no inhibitor control is established and the percent inhibition of each prodrug is calculated with respect to this control.

Turning to `Cl.N[C@@]1(C(=O)O)C[C@@H](Sc2nnc(C(F)F)[nH]2)[C@H]2[C@H](C(=O)O)[C@H]21` [Example 8, (1R,2S,4R,5R,6R)-2-Amino-4-(5-difluoromethyl-1H-[1,2,4]triazol-3-ylsulfanyl)-bicyclo[3.1.0]hexane-2,6-dicarboxylic acid hydrochloride], the “ED60 (60% of the amount of immobility relative to vehicle controls)” value in data set [1] worked out at 7.95 mg/kg. In addition, the “reversal of PCP-induced locomotor activity” value in data set [2] (single dose of 10 mg/kg) is reported as 52%.
As usually defined, the ED50 is the dose at which the effect has come halfway, by size or by number of responders. Take `N[C@@]1(C(=O)O)C[C@H](Sc2c[nH]nn2)[C@H]2[C@H](C(=O)O)[C@H]21` [Example 11, (1R,2S,4S,5R,6R)-2-Amino-4-(1H-triazol-4-ylsulfanyl)bicyclo[3.1.0] hexane-2,6-dicarboxylic acid hydrochloride]: the “efficacy in forced swim test, second study” value in data set [1] (i.p., higher doses (3-30 mg/kg)) is recorded as “efficacy was lost”. The “ED60 (60% of the amount of immobility relative to vehicle controls)” value in data set [1] worked out at 0.88 mg/kg. In addition, the ED50 in data set [2] (Mus musculus, i.p. administration, 30 minutes prior to 7.5 mg/kg PCP) was found to be 1.2 mg/kg.
As to `CSCC[C@H](N)C(=O)N[C@@]1(C(=O)O)C[C@@H](Sc2nnc(C(F)(F)F)[nH]2)[C@H]2[C@H](C(=O)O)[C@H]21.Cl` [Example 17, (1R,2S,4R,5R,6R)-2-((S)-2-Amino-4-methylsulfanyl-butyrylamino)-4-(5-trifluoromethyl-1H-[1,2,4]triazol-3-ylsulfanyl)-bicyclo[3.1.0]hexane-2,6-dicarboxylic acid hydrochloride], the “In Vitro Human Intestinal Hydrolysis % (relative to positive control)” value in data set [3] worked out at 63.3%.
Still for that read-out and setting: for `Cl.NCC(=O)N[C@@]1(C(=O)O)C[C@@H](Sc2nnc(C(F)(F)F)[nH]2)[C@H]2[C@H](C(=O)O)[C@H]21` [Example 18, (1R,2S,4R,5R,6R)-2-(glycylamino)-4-{[5-(trifluoromethyl)-1H-1,2,4-triazol-3-yl]sulfanyl}bicyclo[3.1.0] hexane-2,6-dicarboxylic acid hydrochloride] the value was 65.5%.
Take `C[C@H](N)C(=O)N[C@@]1(C(=O)O)C[C@@H](Sc2cn[nH]n2)[C@H]2[C@H](C(=O)O)[C@H]21.Cl` [Example 19, (1R,2S,4R,5R,6R)-2-[[(2S)-2-Aminopropanoyl]amino]4-(2H-1,2,3-triazol-4-ylsulfanyl)bicyclo[3.1.0] hexane-2,6-dicarboxylic acid hydrochloride]: the “In Vitro Human Intestinal Hydrolysis % (relative to positive control)” value in data set [3] is 58.1%.
In general, inhibition refers to how much of the control response was suppressed. On to `CSCC[C@H](N)C(=O)N[C@@]1(C(=O)O)C[C@@H](Sc2cn[nH]n2)[C@H]2[C@H](C(=O)O)[C@H]21.Cl` [Example 21, (1R,2S,4R,5R,6R)-2-((S)-2-Amino-4-methylsulfanyl-butyrylamino)-4-(2H-[1,2,3]triazol-4-ylsulfanyl)-bicyclo[3.1.0]hexane-2,6-dicarboxylic acid hydrochloride], for which the inhibition at 5000 µM on PepT1 is 57.4%. In data set [3], the “In Vitro Human Intestinal Hydrolysis % (relative to positive control)” value is recorded as 63.8%.
